In patent US6395787B1, “Ocular hypotensive lipids” (Allergan Sales, Inc., priority 2000, dated 2002):

Key:
[1] = target: T1, recombinant feline FP receptor (Felis catus, UniProt A0ABI7XJ69); test: Radioligand binding competition vs 3H-17-phenyl PGF2α, recombinant feline FP receptor; set-up: species or system cat
Method: Plasma membrane preparations of HEK 293 cells stably transfected with the human or feline FP receptor were obtained as follows. Cells washed with TME buffer were scraped from the bottom of the flasks and homogenized for 30 sec using a Brinkman PT 10/35 polytron. TME buffer was added as necessary to achieve a 40 ml volume in the centrifuge tubes. […] The cell homogenate was centrifuged at 19,000 rpm for 20 min at 4-6° C. using a Beckman Ti-60 rotor. The pellet was then resuspended in TME buffer to provide a final protein concentration of 1 mg/ml, as determined by Biorad assay. […] Incubations were for 60 min at 25° C. and were terminated by the addition of 4 ml of ice-cold 50 mM TRIS-HCl followed by rapid filtration through Whatman GF/B filters and three additional 4 ml washes in a cell harvester (Brandel).

[2] = target: T1, recombinant feline FP receptor; test: Ca2+ signal in HEK-293 cells stably transfected with recombinant feline FP receptor; type: cell-based, cat; settings: for Δ[Ca^2+]i mean χ ± SEM: n = 3
Method: Human CRL 1497 cells were plated in culture flasks and fed Dulbecco's modified Eagle's medium (DMEM) containing 10% fetal calf serum, 2 mM 1-glutamine, and 0.05 mg/ml gentacin (all purchased from Gibco, Grand Island, N.Y.). Cell cultures were maintained in a humidified atmosphere of 95% air, 5% CO2 and grown to confluency. Cells were removed from the culture flasks by approximately 1 min treatment with trypsin 0.05%/0.53 mM EDTA in Hanks Balanced Salt Solution (HBSS, Gibco, Grand Island, N.Y.) at 37° C. Proteolytic activity was arrested by adding 5 ml of 10% fetal bovine serum in DMEM. The cells were consecutively washed in Hank's BSS and medium containing 140 mM NaCl, […], 1 mM MgCl2, 1.5 mM CaCl2, 10 mM HEPES: TRIS, 5 mM glucose, 5 mM Na pyruvate, 0.1% bovine serum albumin at pH 7.4: Centrifugation for the washes was performed for 15 minutes at 200 g at room temperature. Cells were counted, resuspended in the above medium and incubated with 2×10^−6 M Fura 2/acetoxymethyl ester in a shaking water bath for 30 minutes at 37° C. The cells were subsequently washed in medium as above and resuspended at a concentration of 2×10^6 cells ml^−1. Aliquots of 0.5 ml cell suspension were then added to autocap microtubes to provide 10^6 cells per experimental determination of intracellular free Ca^2+ concentration ([Ca^2+]i).
Fluorescence was measured in a Perkin-Elmer LS-5 fluorescence spectrophotometer at excitation and emission wavelengths of 340 and 492 nm, respectively, with both slits at 10 nm. For each experimental determination 10^6 cells were washed (200×g for 5 min) and suspended in a 2 ml cuvette with buffer containing 120 mM NaCl, 6 mM KCl, 1 mM MgSO4, 1.5 mM CaCl2, 20 mM HEPES, 1 mg ml^−1 glucose and 1 mg ml^−1 Na pyruvate. Stirring was achieved by an overhead-mounted, paddle stirrer with the temperature maintained at 37° C. The cells were lysed with digitonin (10 μl of 100 mg ml^−1 DMSO) to obtain fmax. EGTA (100 mM) and sufficient 10N NaOH to adjust the pH to 8.5 were then successively added to obtain fmin.
HEK-293 cells were grown in DMEM with 10% fetal bovine serum (FBS), 250 μg ml^−1 G418 (Life Technologies) and 200 μg ml^−1 gentamicin or penicillin/streptomycin. […] For transfection, the cells were grown to 50-60% confluency on 10 cm plates. The plasmid pCEP4 incorporating cDNA inserts for the human FP receptor (20 μg) was added to 500 μl of 250 mM CaCl2. HEPES buffered saline×2 (2×HBSS, 280 mM NaCl, 20 mM HEPES acid, 1.5 mM Na2 HPO4, pH 7.05-7.12) was then added dropwise to a […], with continuous vortexing at room temperature. After 30 min, 9 ml DMEM were added to the mixture. The DNA/DMEM/calcium phosphate mixture was then added to the cells, which had been previously rinsed with 10 ml phosphate buffered saline (PBS). The cells were then incubated for 5 h. at 37° C. in humidified 95% air/5% CO2. The calcium phosphate solution was then removed and the cells were treated with 10% glycerol in DMEM for 2 min. The glycerol solution was then replaced by DMEM with 10% fetal bovine serum (FBS). The cells were incubated overnight and the medium was replaced by DMEM/10% FBS containing 250 μg ml^−1 G418 and penicillin/streptomycin. The following day hygromycin B was added to a final concentration of 200 μg ml^−1.
Ten days after transfection, hygromycin B resistant clones were individually selected and transferred to a separate well on a 24 well plate. […]

human FP receptor = human FP receptor (Homo sapiens, UniProt P43088); test: Radioligand binding competition vs 3H-17-phenyl PGF2α, recombinant human FP receptor; set-up: expressed in transfected cells; settings: for % specific binding mean χ ± SEM: vs 5nM 3H-17-phenyl PGF2α, n = 3
Chain of human FP receptor (P43088 whole entry): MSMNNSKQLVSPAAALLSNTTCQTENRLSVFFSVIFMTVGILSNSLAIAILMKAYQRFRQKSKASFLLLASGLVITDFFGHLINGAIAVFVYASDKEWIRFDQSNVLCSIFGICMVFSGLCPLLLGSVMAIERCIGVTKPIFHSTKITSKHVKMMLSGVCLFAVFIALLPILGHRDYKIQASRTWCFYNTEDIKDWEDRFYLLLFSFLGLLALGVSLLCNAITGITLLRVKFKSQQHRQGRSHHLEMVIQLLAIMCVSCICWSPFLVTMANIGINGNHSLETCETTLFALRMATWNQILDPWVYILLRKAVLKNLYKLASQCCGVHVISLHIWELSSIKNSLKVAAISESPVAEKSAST
Method: Plasma membrane preparations of HEK 293 cells stably transfected with the human or feline FP receptor were obtained as follows. Cells washed with TME buffer were scraped from the bottom of the flasks and homogenized for 30 sec using a Brinkman PT 10/35 polytron. TME buffer was added as necessary to achieve a 40 ml volume in the centrifuge tubes. TME is comprised of 100 mM TRIS base, 20 mM Mg Cl2, 2 m EDTA; physiological pH is achieved by adding 10 N HCl. The cell homogenate was centrifuged at 19,000 rpm for 20 min at 4-6° C. using a Beckman Ti-60 rotor. The pellet was then resuspended in TME buffer to provide a final protein concentration of 1 mg/ml, as determined by Biorad assay. Radioligand binding assays were performed in a 200 μl volume.
Incubations were for 60 min at 25° C. and were terminated by the addition of 4 ml of ice-cold 50 mM TRIS-HCl followed by rapid filtration through Whatman GF/B filters and three additional 4 ml washes in a cell harvester (Brandel).

T1 sequence (A0ABI7XJ69 entry or part of it): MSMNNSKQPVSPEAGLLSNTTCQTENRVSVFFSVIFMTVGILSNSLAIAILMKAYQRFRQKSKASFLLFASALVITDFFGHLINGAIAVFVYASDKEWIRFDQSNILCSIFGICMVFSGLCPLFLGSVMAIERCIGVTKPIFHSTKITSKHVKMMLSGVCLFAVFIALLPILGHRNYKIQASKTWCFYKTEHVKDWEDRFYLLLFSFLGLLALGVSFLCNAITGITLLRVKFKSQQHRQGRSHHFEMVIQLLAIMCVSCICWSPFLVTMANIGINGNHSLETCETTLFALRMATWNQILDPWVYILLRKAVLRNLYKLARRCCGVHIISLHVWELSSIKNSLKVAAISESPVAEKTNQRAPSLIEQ

affinity for the feline receptor ([1]; radioligand binding): only weak affinity | IC50 ([1]; read-out: inhibitory concentration50 (I.C.50), radioligand binding): 882 nM | Δ[Ca^2+]i mean χ ± SEM ([2]; 10^−9 M): 22.2 ± 6.4 | Δ[Ca^2+]i mean χ ± SEM ([2]; 10^−10 M): 6.5 ± 5.0 | difference in potency vs PGF2α ([2]; HEK-293 cells, recombinant feline FP receptor, Ca2+ signal): approximately 100 fold | EC50 ([2]; HEK-293 cells, recombinant feline FP receptor, read-out: E.C.50, Ca2+ signal): 1460 nM | % specific binding mean χ ± SEM (human FP receptor; 10^−5 M): 19.7 ± 1.2% | % specific binding mean χ ± SEM (human FP receptor; 10^−6 M): 63.7 ± 2.7% | % specific binding mean χ ± SEM (human FP receptor; 10^−7 M): 95.9 ± 1.5% | % specific binding mean χ ± SEM (human FP receptor; 10^−8 M): 103.3 ± 0.3% | % specific binding mean χ ± SEM (human FP receptor; 10^−9 M): 94.7 ± 1.4% | IC50 (human FP receptor; read-out: I.C.50, radioligand binding): 2020 nM
SMILES: CCCCC[C@H](O)/C=C/[C@@H]1[C@@H](C/C=C\CCCC(=O)NCCO)[C@@H](O)C[C@H]1O [PGF2α 1-ethanolamide, (5Z,8α,9α,11α,13E,15S)-9,11,15-trihydroxy-N-(2-hydroxyethyL)prosta-5,13-dien-1-amide]
